Assay results from patent US8158586B2, “Inhibitors of protein kinases and uses thereof” (priority 2005, dated 2012).
Where “and” joins values, the source holds several entries; their conditions need not be identical. Equal entries are not always repeated. Marks after values point to notes of the source that are not given here. Positions of bridges follow the written chain, without caps; N, C: chain ends. Non-standard residues stand in square brackets, D forms with d. Residues, ends and D or L forms follow the SMILES beside them. Chains are numbered I, II in the order given. *: point of attachment. PNA(A) = NCCN(CC(=O)*)C(=O)Cn1cnc2c(N)ncnc21; Adenin9ylacetyl = Nc1ncnc2c1ncn2CC(=O)*; N(CH2CH2NHAc)Gly = CC(=O)NCCNCC(=O)O

Legend:
[1] = molecular target: Akt/PKB (Homo sapiens, UniProt P31749); experiment: Luminescence Kinase Glo assay, Akt/PKB; type: biochemical; details: 150000.0
Chain of Akt/PKB (P31749 whole entry): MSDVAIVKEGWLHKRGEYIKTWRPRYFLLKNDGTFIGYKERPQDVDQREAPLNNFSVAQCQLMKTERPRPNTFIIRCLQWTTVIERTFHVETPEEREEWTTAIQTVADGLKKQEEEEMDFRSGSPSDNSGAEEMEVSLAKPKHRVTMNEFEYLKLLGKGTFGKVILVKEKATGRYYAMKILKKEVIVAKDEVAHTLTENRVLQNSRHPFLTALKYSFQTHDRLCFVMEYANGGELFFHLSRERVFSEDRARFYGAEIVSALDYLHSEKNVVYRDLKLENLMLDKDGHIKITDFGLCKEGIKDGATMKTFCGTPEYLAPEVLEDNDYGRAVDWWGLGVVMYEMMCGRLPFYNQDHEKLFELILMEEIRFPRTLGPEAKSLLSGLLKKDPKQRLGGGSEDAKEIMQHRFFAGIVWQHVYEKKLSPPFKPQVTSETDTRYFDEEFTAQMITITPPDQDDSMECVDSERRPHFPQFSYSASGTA
Experimental: The ability of the PKI compounds to inhibit PKA, CDK2, Akt/PKB, MAPKp38 and CK2a2 protein kinases was assessed using the Luminescence Kinase Glo® Kit (Promega V6711) according to the manufacturer's instructions. In brief the protocol was as follows:
All kinases were prepared in their respective 1× buffers. 20 μL of […] reaction buffer was added to each well. 10 μL of PKI compound and 10 μL of the test kinase solution were added followed by 10 μL of the Reaction Solution (containing activators, ATP and substrate). The reactions were incubated at 30° C. for 30 min and then 50 μL of Kinase-Glo® was added. Luminescence was measured after 10-15 min on a Galaxy reader.

[2] = tested on: Pgp expression in H-661 NSCLC cells; experiment: Pgp expression in H-661 NSCLC cells, flow cytometry; type: cell-based; details: H-661 control cell population exposed to doxorubicin for 72 h
Experimental: (§1) The protocol used for fixing the cells for flow cytometry is as follows. A minimum of 1.0×10^6 cells was used in each instance. Cells were trypsinized and spun down at 1,000/5 min at 4° C. All the medium was removed and the cells resuspended in 500 μl of 1×PBS, pH 7.1. The cell suspension was added into 5 mls of 1% paraformaldehyde/PBS on ice and fixed for 15 min on ice. Cells were then centrifuged at 1,000/5 min and resuspended in 10 mls of 1×PBS. Cells were centrifuged again at 1,000/5 min and resuspended in 2 mls of 70% ETOH and kept at −20° C. until needed (up to 1 week). At which time, 2 mls of 1×PBS containing 1% BSA/0.02% NaN3 was added to each tube and the cells were left on ice for 5 min to give the cells time to rehydrate. Cells were then centrifuged at 1,000/5 min and the ETOH/PBS mix removed. […]
(§2) In view of the key role of the Pgp170 and MRP-1 proteins in MDR, the effect of the PKI compounds on expression of these proteins in LS180 colon cancer cells and H-661 NSCLC cells was investigated. […] The number of cells individually analysed amounted to approximately 50,000 with a statistical error of about 0.08%.
(§3) The increase in the expression of P-gp and MRP-1 was assessed by comparing the % of cells expressing the protein in question in the presence and absence of doxorubicin (i.e. the ratio A/B in the Tables).

[3] = tested on: Pgp expression in LS180 colon cancer cells; experiment: Pgp expression in LS180 colon cancer cells, flow cytometry; type: cell-based; details: LS180 control cell population exposed to doxorubicin for 72 h
Experimental: as §1, §2, §3

[4] = tested on: MRP-1 expression in LS180 colon cancer cells; experiment: MRP-1 expression in LS180 colon cancer cells, flow cytometry; type: cell-based; details: LS180 control cell population exposed to doxorubicin for 72 h
Experimental: as §1, §2, §3

[5] = tested on: MRP-1 expression in H-661 NSCLC cells; experiment: MRP-1 expression in H-661 NSCLC cells, flow cytometry; type: cell-based; details: H-661 control cell population exposed to doxorubicin for 72 h
Experimental: as §1, §2, §3

[6] = tested on: PKCα expression in H-661 NSCLC cells; experiment: Expression of PKCα in H-661 cells, flow cytometry; type: cell-based; details: H-661 control cells exposed to doxorubicin for 72 h
Experimental: (§4) The effect of compounds 1 to 10 on doxorubicin-induced expression of PKCα in LS180 colon cancer cells and H-661 NSCLC cells was investigated. Cells were exposed to doxorubicin (50 ng/mL) for 3 days prior to exogenous treatment with the PKI compounds at a concentration of 5 μM. Results were acquired by flow cytometry after labelling of the cells with the PKC-alpha #sc 208 antibody.
as §1, with “removed. The cells were resuspended in 5 mls of 1×PBS and allowed to sit on ice for 5 min.” for “removed.”

[7] = tested on: LS180 colon cancer cells; experiment: Rhodamine influx and efflux in LS180 colon cancer cells; type: cell-based; details: doxorubicin exposed controls
Experimental: (§5) The amount of rhodamine influx and efflux following treatment of LS180 colon cancer cells and H-661 NSCLC cells with the PKI compounds was also investigated. The measurement of rhodamine efflux and influx is a common procedure that provides a quantitative estimation of the level of multidrug resistance due to typical MDR and non-P-gp MDR. Both exogenous treatment using 5 μg/mL of the PKI compounds provided at the same time as doxorubicin, and endogenous incorporation, in which a single dose of 5 mM was used with the standard pinocytic endocytosis protocol, were investigated.
(§6) The MDR-1 pump functions only as an efflux pump, however, it modulates the cell entry of rhodamine (that can diffuse through the membrane). Upon toxicant exposure, rhodamine accumulates in the cells. Ratios of rhodamine fluorescence in doxorubicin exposed versus untreated controls (CT) are lower if the pump is inhibited.

[8] = tested on: PKCα expression in LS180 colon cancer cells; experiment: Expression of PKCα in LS180 cells, flow cytometry; type: cell-based; details: LS180 control cells exposed to doxorubicin for 72 h
Experimental: as §4
as §1, with “removed. The cells were resuspended in 5 mls of 1×PBS and allowed to sit on ice for 5 min.” for “removed.”

[9] = tested on: H-661 NSCLC cells; experiment: Rhodamine influx and efflux in H-661 NSCLC cells; type: cell-based; details: control cells exposed to doxorubicin
Experimental: as §5, §6

Compound: CC[C@H](C)[C@H](NC(=O)[C@H](CSSC[C@H](NC(=O)CNC(=O)CN(CCNC(C)=O)C(=O)Cn1cnc2c(N)ncnc21)C(=O)N[C@@H](CCCCN)C(=O)NCC(=O)N[C@@H](CCCCN)C(=O)N[C@@H](Cc1ccccc1)C(=O)N[C@@H](CCCCN)C(=O)N[C@@H](CCCNC(=N)N)C(N)=O)NC(=O)[C@H](Cc1c[nH]cn1)NC(C)=O)C(=O)NCC(=O)N[C@@H](CCCNC(=N)N)C(=O)N[C@@H](Cc1ccccc1)C(=O)N[C@@H](CCCCN)C(N)=O [Compound 1] (I: Adenin9ylacetyl-[N(CH2CH2NHAc)Gly]GCKGKFKR-NH2 / II: Ac-HCIGRFK-NH2; disulfide I:3-II:2; N-terminus and C-terminus assumed)
- % Inhibition Akt/PKB [1]: −31* %

Compound: CC(=O)N[C@@H](CCCCN)C(=O)N[C@@H](Cc1ccccc1)C(=O)N[C@@H](CCCNC(=N)N)C(=O)N[C@@H](CCCNC(=N)N)C(=O)N[C@@H](CCCCNC(=O)CN(CCN)C(=O)Cn1cnc2c(N)ncnc21)C(=O)N[C@@H](CCCNC(=N)N)C(=O)NCC(=O)N[C@@H](CCCNC(=N)N)C(=O)N[C@@H](CCC(=O)O)C(=O)N[C@H](C(=O)N[C@@H](CC(=O)O)C(N)=O)C(C)C [Compound 5] (Ac-KFRRK(PNA(A))RGREVD-NH2)
- % Inhibition Akt/PKB [1]: −6* %

Compound: CC(=O)N[C@@H](CCCCN)C(=O)N[C@@H](Cc1ccccc1)C(=O)N[C@@H](CCCNC(=N)N)C(=O)N[C@@H](CCCNC(=N)N)C(=O)N[C@@H](CCCCNC(=O)CN(CCN)C(=O)Cn1cnc2c(N)ncnc21)C(=O)N[C@@H](CC(C)C)C(=O)N[C@@H](CCCNC(=N)N)C(=O)N[C@@H](CC(C)C)C(=O)N[C@@H](CCC(=O)O)C(=O)N[C@H](C(=O)N[C@@H](CC(=O)O)C(N)=O)C(C)C [Compound 6] (Ac-KFRRK(PNA(A))LRLEVD-NH2)
- % Inhibition Akt/PKB [1]: −10* %

Compound: CC(=O)N[C@@H](CCCCN)C(=O)N[C@@H](CC(C)C)C(=O)N[C@@H](CCCNC(=N)N)C(=O)N[C@@H](CCCNC(=N)N)C(=O)N[C@@H](C)C(=O)N[C@@H](CCCCNC(=O)CN(CCN)C(=O)Cn1cnc2c(N)ncnc21)C(=O)N[C@@H](CCCNC(=N)N)C(=O)N[C@@H](Cc1ccccc1)C(=O)N[C@@H](CC(C)C)C(=O)N[C@@H](CCC(=O)O)C(=O)N[C@H](C(=O)N[C@@H](CC(=O)O)C(N)=O)C(C)C [Compound 7] (Ac-KLRRAK(PNA(A))RFLEVD-NH2)
- % Inhibition Akt/PKB [1]: −7* %

Compound: CC(=O)N[C@@H](CCCCN)C(=O)N[C@@H](CC(C)C)C(=O)N[C@@H](CCCNC(=N)N)C(=O)N[C@@H](CCCNC(=N)N)C(=O)N[C@@H](C)C(=O)N[C@@H](CCCCNC(=O)CN(CCN)C(=O)Cn1cnc2c(N)ncnc21)C(=O)N[C@@H](CC(C)C)C(=O)NCC(=O)N[C@@H](CC(C)C)C(=O)NCC(=O)N[C@@H](CC(=O)O)C(=O)N[C@@H](CC(=O)O)C(N)=O [Compound 8] (Ac-KLRRAK(PNA(A))LGLGDD-NH2)
- % Inhibition Akt/PKB [1]: 0%

Compound: CC(=O)N[C@@H](CCCCN)C(=O)N[C@@H](CC(C)C)C(=O)N[C@@H](CCCCN)C(=O)N[C@@H](CCCCN)C(=O)N[C@@H](C)C(=O)N[C@@H](CCCCNC(=O)CN(CCN)C(=O)Cn1cnc2c(N)ncnc21)C(=O)N[C@@H](CC(C)C)C(=O)NCC(=O)N[C@@H](CC(C)C)C(N)=O [Compound 9] (Ac-KLKKAK(PNA(A))LGL-NH2; N-terminus and C-terminus assumed)
- % Inhibition Akt/PKB [1]: 7%

Compound: CC(=O)NCCN(CC(=O)NCC(=O)N[C@@H](CS)C(=O)N[C@@H](CCCCN)C(=O)NCC(=O)N[C@@H](CCCCN)C(=O)N[C@@H](Cc1ccccc1)C(=O)N[C@@H](CCCCN)C(=O)N[C@@H](CCCNC(=N)N)C(N)=O)C(=O)Cn1cnc2c(N)ncnc21 [Compound 10] (Adenin9ylacetyl-[N(CH2CH2NHAc)Gly]GCKGKFKR-NH2; N-terminus and C-terminus assumed)
- % Inhibition Akt/PKB [1]: 21%

Compound: COc1cccc2c1C(=O)c1c(O)c3c(c(O)c1C2=O)C[C@@](O)(C(=O)CO)C[C@@H]3O[C@H]1C[C@H](N)[C@H](O)[C@H](C)O1 [doxorubicin]
- increase in number of P-gp labelled cells, average [2]: 15.0 times
- increase in number of P-gp labelled cells, average [3]: 2.38 times
- increase in number of MRP-1 labelled cells, average [4]: 3.41 times
- increase in number of MRP-1 labelled cells, average [5]: 12.05 times
- increase in log fluorescence relative intensity (PKCα), average [6]: 2.19 times
- rhodamine accumulation [7]: 1.58 times and 1.43 times and 1.37 times
- increase in log fluorescence relative intensity (PKCα), average [8]: 1.99 times
- increase in rhodamine retention [9]: ~2.00 times
